From patent publication US7267718B2, “Pullulan film compositions” (Warner-Lambert Company, LLC, priority 2000, dated 2007)

Experiment: Pullulan film gliding performance, slanted plane test (smallest gliding angle of film-coated glass plates)
Format: physicochemical
Details: smaller angle = better
Experimental: […] The mixture is heated to 70° C. under stirring for complete solubilisation and then the stirring is reduced for defoaming. The solution then is used to cast on glass plates of 4 mm thickness to form pullulan films of about 100 μm thickness after drying at room conditions. The pullulan film gliding performance is evaluated by a test on a slanted plan, a method commonly used by gelatine producers. The method determines the smallest angle of inclination of glass plate to provoke the gliding of a film coated glass plate over another one with films face to face. Consequently, the smaller the gliding angle, the better the film gliding performance.

[1] = surfactant 500 ppm/pullulan, cast pullulan film about 100 μm with kappa-carrageenan and potassium acetate
[2] = surfactant 1000 ppm, cast pullulan film about 100 μm

Row | Compound | Pullulan gliding performance (°) [1] [°] | Pullulan gliding performance (°) [2] [°] | Pullulan gliding performance (°) (surfactant 5000 ppm, cast pullulan film about 100 μm)
1 | CCCCCCCCCCCCOS(=O)(=O)[O-].[Na+] [SLS, sodium lauryl sulphate] | 9 | 5 | 6
2 | Polysorbate 20 | 12 | 12 | 
3 | Polysorbate 80 | 10 | 9 | 
4 | Sorbitan laurate | 10 | 8 | 
5 | Sorbitan oleate | 9 | 7 | 
